Data taken from ChEMBL document CHEMBL1201862, “PubChem BioAssay data set” (2004).
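Method: 48-hour compound exposure of cells in 96-well plates, five concentrations, linear interpolation of endpoints. GI50: concentration for 50% inhibition of growth.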 The source made the active and inactive calls. Cut-off read from the data, not from the text of the source: active = GI50 up to about 1.1 µM and inactive = higher.

Tests used:
Test in all cases: NCI anticancer screen, dose series, 48 h
[1] = tested on: UO-31
[2] = tested on: HOP-18
[3] = tested on: RPMI-8226
[4] = tested on: RXF 393
[5] = tested on: Malme-3M
[6] = tested on: MOLT-4
[7] = tested on: HOP-92
[8] = tested on: SK-MEL-5
[9] = tested on: K562
[10] = tested on: DMS-114
[11] = tested on: IGROV-1
[12] = tested on: HT-29
[13] = tested on: M19-MEL
[14] = tested on: CAKI-1
[15] = tested on: UACC-257
[16] = tested on: HCT-15
[17] = tested on: OVCAR-3
[18] = tested on: NCI-H226
[19] = tested on: SK-MEL-2
[20] = tested on: NCI-H23
[21] = tested on: SW-620
[22] = tested on: U-251
[23] = tested on: ACHN
[24] = tested on: DLD-1
[25] = tested on: TK-10
[26] = tested on: OVCAR-8
[27] = tested on: SF-539
[28] = tested on: M14
[29] = tested on: CCRF-CEM
[30] = tested on: SK-MEL-28
[31] = tested on: SK-OV-3
[32] = tested on: LXFL 529
[33] = tested on: NCI-H522
[34] = tested on: EKVX
[35] = tested on: COLO 205
[36] = tested on: SF-268
[37] = tested on: A549
[38] = tested on: SR
[39] = tested on: KM-20L2
[40] = tested on: OVCAR-4
[41] = tested on: KM12
[42] = tested on: XF498
[43] = tested on: NCI-H460
[44] = tested on: SN12C
[45] = tested on: DMS-273
[46] = tested on: SF-295
[47] = tested on: HL-60
[48] = tested on: SNB-19
[49] = tested on: HCC 2998
[50] = tested on: HCT-116
[51] = tested on: SNB-75
[52] = tested on: A498
[53] = tested on: 786-0

Measured: GI50

COc1ccc2[nH]c3c(C)cc([N+](=O)[O-])c(C)c3c2c1
26.6 µM: [16]
inactive: [1] 21.6 µM | [2] 26.1 µM | [3] 17.7 µM | [4] 19 µM | [5] 28.6 µM | [6] 20.5 µM | [7] 28.4 µM | [8] 25.6 µM | [9] 18.4 µM | [10] 23.3 µM | [11] 27.4 µM | [12] 28.5 µM | [13] 21.9 µM | [14] 19.4 µM | [15] 31.2 µM | [17] 37.8 µM | [18] 43.7 µM | [19] 20.6 µM | [20] 22.6 µM | [21] 21.7 µM | [22] 22.9 µM | [23] 22 µM | [24] 26.6 µM | [25] 27.1 µM | [26] 23 µM | [27] 23.7 µM | [28] 21.1 µM | [29] 17.9 µM | [30] 24.7 µM | [31] 28.2 µM | [32] 25.5 µM | [33] 17.1 µM | [34] 31 µM | [35] 26.3 µM | [36] 37.3 µM | [37] 25 µM | [38] 17.7 µM | [39] 47.5 µM | [40] 33 µM | [41] 19.7 µM | [42] 34.2 µM | [43] 15.5 µM | [44] 31.3 µM | [45] 13.6 µM | [46] 41.4 µM | [47] 16.6 µM | [48] 37.8 µM | [49] 25.4 µM | [50] 17.9 µM | [51] 20.4 µM | [52] 21.6 µM | [53] 21.8 µM
